Reference: PubChem BioAssay AID179 (DTP/NCI, 2004)
The source made the active and inactive calls.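 How the source made its calls: active means compounds giving half or more protection of infected cells from virus-caused growth loss, again on retest; inactive means the rest.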

Test system: CEM cells HIV-1 protection, formazan growth assay
Assay: NCI AIDS Antiviral Assay
Settings: for IC50: measured here: growth of uninfected CEM cells
Method in brief: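 Screen of anti-HIV-1 activity in human CEM cells using a formazan-based growth measurement at five drug concentrations. Hits with 50% or greater protection were repeated, and confirmation required reproducible complete protection.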

| Structure (SMILES) | EC50 [µM] | IC50 [µM] | outcome |
| --- | --- | --- | --- |
| COc1c(C)c(C/C=C(\C)CC/C=C(\C)CCC=C(C)C)c(OC)c(OC)c1OC | > 200 | > 200 | – |
| CCCCNC(=S)Nc1nc(C(=O)NNC(=S)NCc2ccccc2)cs1 | > 126 | 26.3 | – |
| NCCCCCC(CCN)SCC1OC(n2cnc3c(N)ncnc32)C(O)C1O (configuration not stated) | > 200 | 107 | – |
| O=[N+]([O-])c1cnc(N(CCO)CCO)s1 | > 200 | > 200 | – |
| O=C1OC(=O)C2C1C=C(c1ccccc1)C1C3C=CC(C4C(=O)OC(=O)C34)C21 (configuration not stated) | > 200 | > 200 | – |
| CCOC(=O)C(=O)Nc1ccc(C)c(C)c1 | > 427 | > 427 | – |
| CC1C/C(=C\c2ccc(OC(=O)C(C)(C)C)cc2)C(=O)/C(=C/c2ccc(OC(=O)C(C)(C)C)cc2)C1 (configuration not stated) | > 50.1 | 22.4 | – |
| CC(=O)OCC1OC(n2c(-c3ccc(C)cc3)cc(-c3ccco3)c(C#N)c2=O)C(OC(C)=O)C(OC(C)=O)C1OC(C)=O (configuration not stated) | > 16.2 | > 16.2 | – |
| COC(=O)c1sc(C(=O)OC)c2c1CSC2 | – | – | inactive |
| c1ccc2c3c([nH]c2c1)C1C2CCCCN2C(c2ccncc2)N1CC3 (configuration not stated) | > 75.9 | 42.7 | – |
| Clc1ccc2c(NCCCCN3OC3c3ccccc3)ccnc2c1 (configuration not stated) | > 200 | 5.01 | – |
| CCN(CC)c1ccc(N=Nc2ccc(N=Nc3c(S(=O)(=O)O)cc4ccc(N)cc4c3O)c(OCCO)c2)cc1 | > 14.8 | > 14.8 | – |
| CC(=O)NNc1nc(C)c(C(=O)NNC(=O)C(=O)Nc2c(C)cccc2C(C)C)s1 | > 60.3 | 52.5 | – |
| Cn1cnnc1Sc1c([N+](=O)[O-])nc(-c2ccc([N+](=O)[O-])cc2)n1C | > 100 | 2.95 | – |
| CC[n+]1cnc(N)c2c(-c3ccc(Cl)cc3)cn(-c3ccc(C)cc3)c21 | > 200 | 12.3 | – |
| C=CC1(C)CCC2C(=CCC3C2(C)CC(O)C(O)C3(C)COC2OC(CO)C(O)C(O)C2O)C1 (configuration not stated) | > 200 | 39.8 | – |
| O=C(CCC(=O)Nc1ccc(Cl)c(Cl)c1)CC(=O)c1ccc(Br)cc1 | > 282 | > 282 | – |
| COc1cc(C2C(Cl)C(=O)N2NC(=O)c2ccccc2O)cc(OC)c1OC (configuration not stated) | > 45.7 | 3.98 | – |
| O=C1[C@@H](O)[C@@H]2CCCC[C@@]23CCCN13 | > 200 | > 200 | – |
| CCOC(=O)C1C(=S)NC(=O)C1C#N (configuration not stated) | – | – | inactive |
| O=C1CC(c2ccc(Cl)cc2)C2(C(=O)NC(=O)NC2=O)C(c2ccc(Cl)cc2)C1 (configuration not stated) | > 75.9 | 34.7 | – |
| CCC[CH2][Sn]([CH2]CCC)([O]C(=O)CN)[O]C(=O)CN | > 33.9 | 2.45 | – |
| CC1(C)OCC(C2OC(OC(=O)c3ccc(C(F)(F)F)cc3)C3OC(C)(C)OC23)O1 (configuration not stated) | – | – | inactive |
| CCC(=O)O[C@@H]1C2C(OC(C)=O)C34COC(C)([C@@H]3C3C(C[C@]3(C)OC(C)=O)[C@@H](OC(=O)c3ccccc3)C4=O)[C@H](OC(C)=O)[C@@]2(OC(C)=O)C[C@@H]1C (some centres not stated) | > 10 | > 10 | – |
| O=C1CC2C(CC3OC(=O)C4C3C23COC4(O)C(O)C3)c2occc21 (configuration not stated) | > 200 | 3.24 | – |
| COC(=O)C1C=CN(N(C)C)C2=C1C(=O)c1c(O)cccc1C2=O (configuration not stated) | > 200 | 1.74 | – |
| Cc1nc(-n2nc(-c3ccccc3)cc2-c2ccccc2)sc1C(=O)/C=C/c1ccc(Cl)cc1 | > 14.8 | > 14.8 | – |
| C#CC(C)(C)OC(=O)C(=[N+]=[N-])C(C)=O | > 200 | > 200 | – |
| O=C1NCc2ccccc2S(=O)(=O)n2cccc21 | > 200 | 120 | – |
| [Se]=P(c1ccccc1)(c1ccccc1)c1ccc(C(c2ccccc2)=P(c2ccccc2)(c2ccccc2)c2ccccc2)cc1 | > 10 | 1 | – |
